# Reference: patent publication US20250320215A1, “SALTS OF N-[4-(4-[[2-(DIMETHYLAMINO)ETHYL]AMINO]-3-METHYL-1H-PYRAZOLO[3,4-D]PYRIMIDIN-6-YL)-2-FLUOROPHENYL]-2,5-DIFLUOROBENZENESULFONAMIDE AND CRYSTALLINE FORMS THEREOF” (THRYV THERAPEUTICS INC, priority 2022, published 2025)
# Read-outs that look alike come from different tables or passages of the source.
# Legend:
# Assay type in all cases: physicochemical
# [1] = Thermal treatment (heat-cool cycle by DSC, XRPD of resulting solids); settings: Heated to 130° C. at 10° C./min, and cooled to 25° C. at 5° C./min
# Protocol: Compound 3, Form E was treated with heat-cool cycle by DSC. The resulted solids were characterized by XRPD. Compound 3, Form E, was converted to Compound 3, Form D after desolvation.
# Compound 4 Form B was treated with heat-cool cycle by DSC. The resulted solids were checked by XRPD. […] The water was excluded at elevated temperature, then entered in the crystal lattice again at room temperature.
# Compound 4 Form C and trace Form B was treated with heat-cool cycle by DSC. The resulted solids were checked by XRPD. The sample was converted to low crystalline (LC) Form B after heating to 175° C.
# Compound 4 Form D was treated with heat-cool cycle by DSC. The resulted solids were checked by XRPD. The sample kept unchanged after heating to 140° C., but was converted to a new low crystalline form after heating to 210° C. which was assigned to Form F.
# [2] = Dynamic vapor sorption/desorption (DVS) with post-DVS XRPD
# Protocol: Moisture sorption/desorption data were collected on a DVS Intrinsic. 7-20 mg of a sample was placed into a tared sample chamber and automatically weighed. The anhydrates were analyzed with the following setting parameters:
# DVS experiments (FIGS. 17, 19, 21, 34, 35, 48 and 50) and XRPD post-DVS experiments (FIGS. 18, 20, 22, 36, 49 and 51) were conducted in order to study the deliquescence behaviour of the crystalline salts upon expose to humidity.
# [3] = Estimated solubility by solvent addition method via visual assessment; settings: thermodynamic from solid, room temperature, read-out: Solubility
# Protocol: Solubility of Compound 3 Form B was estimated in 30 solvents at room temperature and in 9 organic solvents at 70° C. using solvent addition method via visual assessment.
# Protocol: about 3 mg of Compound 3 Form B was weighed into a sample vial and the solvent was added gradually with vortex until the drug solution was clear by observation or a total of 2 mL solvent was added. Then, the estimated solubility (mg/mL) was calculated.
# Solubility of Compound 4, Form B was estimated in 18 solvents at room temperature using solvent addition method via visual assessment. About 3 mg of Compound 4, Form B was weighed into a sample vial and the solvent was added gradually with vortex until the solution was clear by observation or a total of 2 mL solvent was added. Then, the estimated solubility (mg/mL) was calculated.
# [4] = Slurry study evaluated by XRPD
# Protocol: About 20 mg of Compound 3, Form B was weighed into a sample vial and then 1 mL of solvent was added to make a suspension. The suspension was stirred at room temperature or 50° C. for 3 days and 11 days. Then, the wet solid was collected by filtration and analyzed by XRPD.
# 20-30 mg of Compound 4 Form B was added in 1 mL of selected solvents at room temperature or 50° C. The suspension was slurried at room temperature or 50° C. for 3 days and 11 days. The wet solids collected from filtration were examined by XRPD. There were four crystal forms obtained by slurrying, including di-mesylate Forms B, C and D as well as mono-mesylate Form G.
# [5] = Solid stability testing (HPLC purity and XRPD)
# Protocol: HPLC analysis were performed with an Agilent HPLC 1260 series instrument. HPLC method for stability testing is as follows:
# Solid stability testing of Compound 3, Form D was evaluated at the conditions of 60° C. (capped) and 40° C./75% RH (open) for 7 days. Polymorphic form and purity were analyzed by XRPD and HPLC, respectively. […] (capped) and 40° C./75% RH (open) for 7 days.
# Solid stability testing of Compound 4 Form B and Form D were evaluated at the conditions of 60° C. (vial close) and 40° C./75% RH (vial open) for 7 days. Polymorphic form and purity were checked by XRPD and HPLC, respectively.
# [6] = slurry in ACN/Water (9/1, v/v) at RT
smiles,measurement,setting,value
Cc1n[nH]c2nc(-c3ccc(NS(=O)(=O)c4cc(F)ccc4F)c(F)c3)nc(NCCN(C)C)c12 [Compound 4 Form B],XRPD Resulting Form,[1],Form B
same,Comments: hygroscopicity (DVS),[2],Hygroscopic
same,hygroscopicity,[2],hygroscopic
same,Post-DVS XRPD,[2]; XRPD after DVS versus before,No change
same,wt % gain (DVS),[2]; at 80% RH (25° C.),9.16 wt %
same,water uptake (DVS),"[2]; at 80% RH, 25° C.",9.16%
same,Reversibility (DVS),[2]; sorption/desorption,Reversible
same,solubility,"[3]; organic solvent or mixture, 2-Me THF",< 1500 µg/mL
same,solubility,"[3]; organic solvent or mixture, ACN",< 1500 µg/mL
same,solubility,"[3]; organic solvent or mixture, ACN/Water (9/1, v/v)",15000 to 20000 µg/mL
same,solubility,"[3]; organic solvent or mixture, Acetone",< 1500 µg/mL
same,solubility,"[3]; organic solvent or mixture, DCM",< 1500 µg/mL
same,solubility,"[3]; organic solvent or mixture, DMA",75000 to 150000 µg/mL
same,solubility,"[3]; organic solvent or mixture, DMSO",> 150000 µg/mL
same,solubility,"[3]; organic solvent or mixture, EA",< 1500 µg/mL
same,solubility,"[3]; organic solvent or mixture, EtOH",3750 to 7500 µg/mL
same,solubility,"[3]; organic solvent or mixture, IPA",< 1500 µg/mL
same,solubility,"[3]; organic solvent or mixture, IPAC",< 1500 µg/mL
same,solubility,"[3]; organic solvent or mixture, MEK",< 1500 µg/mL
same,solubility,"[3]; organic solvent or mixture, MTBE",< 1500 µg/mL
same,solubility,"[3]; organic solvent or mixture, MeOH",12000 to 20000 µg/mL
same,solubility,"[3]; organic solvent or mixture, MeOH/Water (9/1, v/v)",75000 to 150000 µg/mL
same,solubility,"[3]; organic solvent or mixture, NMP",> 150000 µg/mL
same,solubility,"[3]; organic solvent or mixture, THF",< 1500 µg/mL
same,solubility,[3]; Water,75000 to 150000 µg/mL
same,XRPD Result Day 3/Wet,[4]; slurry in 2-Me THF at 50° C.,Form D
same,XRPD Result Day 11/Wet,[4]; slurry in 2-Me THF at 50° C.,Form D
same,XRPD Result Day 3/Wet,[4]; slurry in 2-Me THF at RT,Form D
same,XRPD Result Day 11/Wet,[4]; slurry in 2-Me THF at RT,Form D
same,XRPD Result Day 3/Wet,[4]; slurry in ACN at 50° C.,Form B
same,XRPD Result Day 11/Wet,[4]; slurry in ACN at 50° C.,Form B
same,XRPD Result Day 3/Wet,[4]; slurry in ACN at RT,Form B
same,XRPD Result Day 11/Wet,[4]; slurry in ACN at RT,Form B
same,XRPD Result Day 3/Wet,[4]; [6],Form D
same,XRPD Result Day 11/Wet,[4]; [6],Form D
same,XRPD Result Day 3/Wet,[4]; slurry in Acetone at 50° C.,Form C
same,XRPD Result Day 11/Wet,[4]; slurry in Acetone at 50° C.,Form D
same,XRPD Result Day 11/Wet,[4]; slurry in Acetone at RT,Form D
same,XRPD Result Day 3/Wet,[4]; slurry in DCM at 50° C.,Form B
same,XRPD Result Day 3/Wet,[4]; slurry in DCM at RT,Form D
same,XRPD Result Day 11/Wet,[4]; slurry in DCM at RT,Form D
same,XRPD Result Day 3/Wet,[4]; slurry in EA at 50° C.,Form D
same,XRPD Result Day 11/Wet,[4]; slurry in EA at 50° C.,Form D
same,XRPD Result Day 11/Wet,[4]; slurry in EA at RT,Form D
same,XRPD Result Day 3/Wet,[4]; slurry in EtOH at RT,Form D
same,XRPD Result Day 11/Wet,[4]; slurry in EtOH at RT,Form D
same,XRPD Result Day 3/Wet,[4]; slurry in IPA at 50° C.,Form D
same,XRPD Result Day 11/Wet,[4]; slurry in IPA at 50° C.,Form D
same,XRPD Result Day 3/Wet,[4]; slurry in IPA at RT,Form D
same,XRPD Result Day 11/Wet,[4]; slurry in IPA at RT,Form D
same,XRPD Result Day 3/Wet,[4]; slurry in IPAC at 50° C.,Form D
same,XRPD Result Day 11/Wet,[4]; slurry in IPAC at 50° C.,Form D
same,XRPD Result Day 3/Wet,[4]; slurry in IPAC at RT,Form D
same,XRPD Result Day 11/Wet,[4]; slurry in IPAC at RT,Form D
same,XRPD Result Day 3/Wet,[4]; slurry in MEK at 50° C.,Form D
same,XRPD Result Day 11/Wet,[4]; slurry in MEK at 50° C.,Form D
same,XRPD Result Day 3/Wet,[4]; slurry in MEK at RT,Form D
same,XRPD Result Day 11/Wet,[4]; slurry in MEK at RT,Form D
same,XRPD Result Day 3/Wet,[4]; slurry in MTBE at 50° C.,Form D
same,XRPD Result Day 11/Wet,[4]; slurry in MTBE at RT,Form D
same,XRPD Result Day 3/Wet,[4]; slurry in MeOH at RT,Form B
same,XRPD Result Day 11/Wet,[4]; slurry in MeOH at RT,Form B
same,XRPD Result Day 3/Wet,[4]; slurry in THF at 50° C.,Form C
same,XRPD Result Day 3/Wet,[4]; slurry in THF at RT,Form C
same,XRPD Result Day 11/Wet,[4]; slurry in THF at RT,Form D
same,XRPD Result,[4]; slurry in Water at RT or 50° C. for 3 days,Mono-mesylate Form G was obtained.
same,Solid stability,"[5]; 40° C./75% RH (open), day 7",partially converted to Form D
same,Solid stability,"[5]; 60° C. (close), 7 days",chemically and physically stable
same,"Purity, Initial T0","[5]; HPLC, before storage",99.47%
same,"Purity - 7 days, 60° C.","[5]; HPLC, capped/closed vial, 7 days",99.41%
same,"Purity - 7 days, 40° C./75% RH","[5]; HPLC, open, 7 days",99.18%
same,"XRPD, Initial T0",[5]; before storage,Form B
same,"XRPD - 7 days, 60° C.","[5]; capped/closed vial, 7 days",Form B
